Assay results as given in publication PMC12333026, “Versatile Imidazole Scaffold with Potent Activity against Multiple Apicomplexan Parasites” (ACS Infectious Diseases, 2025).
Like-named read-outs stand apart in the source and are kept apart here.

Legend:
[1] = system: T. gondii tachyzoites, parental control; test: Proliferation EC50, host fibroblast nuclei count, parental control; format: cell-based; conditions: Toxoplasma gondii
Procedure: (§1) Human Foreskin Fibroblasts (HFF) were cultured in DMEM, with D-glucose (4.5 g/L), L-glutamine, and sodium pyruvate (110 mg/L) (Gibco) that were further supplemented with 10% Fetal Clone 1 serum (FCS)(HyClone), 50 U/mL penicillin (Gibco), […] streptomycin (Gibco), and 1× GlutaMax (Gibco). HFF cells were cultured in T25 flasks (Corning) in a humidified incubator at 37 °C and 5% CO2. For culture, media was replaced with DMEM, as described above, with 1% FCS. Mutant strains were created as described in.
(§2) Presence of desired mutations in parasite lines, TgCDPK1^G128M, TgCDPK1^G128M + TgMAPKL1^L162Q and […] was verified through sequencing. Compounds were dissolved in DMSO and serially diluted 4-fold across the first 10 wells of a 96 well plate, with the highest drug concentration in the first column being 25 μM. The strain of was then added to the first 11 columns of the 96-well plate at a density of 4000 parasites per well. The 11th column contained no compounds, and the 12th column contained no parasites and no compound. After 5 days of incubation at 37 °C and 5% CO2, cells were washed with PBS and fixed with 4% PFA in PBS (Thermo Fisher Scientific, Waltham, MA, USA). After fixing, cells were washed three times with PBS and stained with 300 nM DAPI in PBS before being washed again three times with PBS.
(§3) Images were acquired in an ImageXpress Pico Automated Cell Imaging System (Molecular Devices, San Jose, CA, USA) with a 4× objective using UV fluorescence. Following imaging, ImageXpress software was used to count objects with a fluorescence intensity ≥8 and a size of 12–30 μm, giving a total count of host cell nuclei for each well. EC50 were determined based on the number of remaining fibroblast nuclei using a nonlinear regression analysis with GraphPad Prism software version 10.0.0 for Windows, GraphPad Software, Boston, Massachusetts USA. Each compound was tested in ≥3 experiments in quadruplicate rows.

[2] = system: P. falciparum 3D7 (WT) asexual stage parasites; test: Growth inhibition assay, asexual stage parasites, WT 3D7; format: cell-based; conditions: Plasmodium falciparum; 3D7 asexual stage parasites, 72 h; mean ± SD, n = 1–2
Procedure: (§4) lines were maintained with O+ human erythrocytes (BioIVT). WT 3D7A10 and T618Q parasites were kind gifts from Dr. David Fidock (Columbia University) and Dr. David Baker (London School of Tropical Medicine and Hygiene), respectively. Growth inhibition assays were performed as previously described. Parasites were grown in RPMI 1640 medium (Sigma-Aldrich, St. Louis, MO, U.S.A.) supplemented with 5 mg/mL Albumax (Gibco), 50 μg/mL hypoxanthine (Sigma-Aldrich), 2 mg/mL Na2CO3 (Sigma-Aldrich), 25 mM HEPES, and 50 μg/mL gentamicin (Gibco). The growth assay was initiated with cultures with >80% ring stage parasites, diluted to a parasitemia of 0.4% and a hematocrit of 1%. Parasites were transferred to a 96-well plate with test compounds, vehicle, or DHA as positive control, and maintained for 72 h in 5% CO2, 5% O2, and 90% N2 in a humidified chamber. Parasite viability at 72 h was determined by addition of SYBR Green I nucleic acid stain (Thermo Fisher Scientific, S7563) and Mitotracker Deep Red (Fisher M422426) followed by flow cytometry on a BD FACSVerse using BD FACSuite software. Data acquired were analyzed using Flowjo software. EC50 values were derived by nonlinear regression in Graph Pad Prism 7.

[3] = system: strain UGA1 expressing nanoluciferase, replication in HCT-8 cells; test: Growth inhibition assay in HCT-8 cells (nanoluciferase strain UGA1); format: cell-based, C. parvum; conditions: Cryptosporidium parvum, 48 h, nanoluciferase readout, (±SD), read-out: EC50 of replication measured in HCT-8 cells
Procedure: strain UGA1 transfected to express nanoluciferase (Nluc) and obtained from the University of Arizona after propagation in newborn calves. HCT-8 cells were added to a 384-well plate and allowed to grow for 48 h to reach 75–90% confluence. The medium was removed, and test compounds were added in serial dilutions prior to the addition of 1000 oocysts per well in RPMI 1640 medium supplemented with 10% heat inactivated FBS and 1% penicillin streptomycin. Plates were incubated for 48 h; Nano-Glo luciferase reagent (Promega, Madison, WI) was then added, and the plates were read on an EnVision multilabel plate reader (PerkinElmer, Waltham, MA). EC50 curves were calculated as previously described using Prism v6.07 (GraphPad Software, La Jolla, CA).

TgCDPK1-G128M = target: T1, TgCDPK1-G128M (Toxoplasma gondii, UniProt Q9BJF5, G128M); test: CDPK enzyme activity assay, TgCDPK1 G128M; format: biochemical, T. gondii
T1 construct: made in house
Procedure: (§5) Recombinant expression of PfCDPK1, PfCDPK4, TgCDPK1 WT, TgCDPK1-G128M, CpCDPK1 and CpCDPK1-G152 M were purified as previously described. […] These reactions were performed in a buffer composed of 1 mM EGTA (pH 7.2), 10 mM MgCl2, 20 mM HEPES pH 7.5 (KOH), 0.1% BSA. The reactions were initiated with addition of 10 μM ATP and 2 mM CaCl2 as enzyme activation reagent. Reaction plates were incubated for 90 min with 90 rpm agitation at 30 °C. […] KinaseGlo (Promega) luminescence-based assay in which luminescence is inversely related to kinase activity and […] was used as previously described.

[4] = system: T. gondii RH strain expressing β-galactosidase, parental; test: Proliferation EC50, β-galactosidase readout, parental strain; format: cell-based; conditions: Toxoplasma gondii, 72 h, read-out: T. gondii EC50 (±SD) CONTROL
[5] = system: P. falciparum T618Q asexual stage parasites; test: Growth inhibition assay, asexual stage parasites expressing PfPKG T618Q; format: cell-based; conditions: Plasmodium falciparum, 72 h, read-out: P. falciparum EC50 (±SD) T618Q
Procedure: as §4

[6] = system: T. gondii tachyzoites expressing TgCDPK1 G128M; TgMAPKL-1 L162Q; test: Proliferation EC50, host fibroblast nuclei count, double mutant; format: cell-based
Procedure: as §1, §2, §3

[7] = system: T. gondii tachyzoites expressing TgCDPK1 G128M; test: Proliferation EC50, host fibroblast nuclei count, TgCDPK1 G128M mutant; format: cell-based
Procedure: as §1, §2, §3

[8] = system: T. gondii tachyzoites expressing TgPKG T761Q; test: Proliferation EC50, host fibroblast nuclei count, TgPKG T761Q mutant; format: cell-based; conditions: for EC50: Toxoplasma gondii, Fibroblast
Procedure: as §1, §2, §3

PfCDPK1 = target: T2, PfCDPK1 (Plasmodium falciparum, UniProt P62344); test: CDPK enzyme activity assay, PfCDPK1; format: biochemical, P. falciparum; conditions: recombinant enzyme; mean ± SD, n = 2–3 experiments; read-out: enzyme IC50 (±SD) PfCDPK1 WT
T2 construct: made in house
Procedure: as §5

TgCDPK1 WT = target: T3, TgCDPK1 WT (Toxoplasma gondii, UniProt Q9BJF5); test: biochemical
T3 sequence (Q9BJF5 1-507): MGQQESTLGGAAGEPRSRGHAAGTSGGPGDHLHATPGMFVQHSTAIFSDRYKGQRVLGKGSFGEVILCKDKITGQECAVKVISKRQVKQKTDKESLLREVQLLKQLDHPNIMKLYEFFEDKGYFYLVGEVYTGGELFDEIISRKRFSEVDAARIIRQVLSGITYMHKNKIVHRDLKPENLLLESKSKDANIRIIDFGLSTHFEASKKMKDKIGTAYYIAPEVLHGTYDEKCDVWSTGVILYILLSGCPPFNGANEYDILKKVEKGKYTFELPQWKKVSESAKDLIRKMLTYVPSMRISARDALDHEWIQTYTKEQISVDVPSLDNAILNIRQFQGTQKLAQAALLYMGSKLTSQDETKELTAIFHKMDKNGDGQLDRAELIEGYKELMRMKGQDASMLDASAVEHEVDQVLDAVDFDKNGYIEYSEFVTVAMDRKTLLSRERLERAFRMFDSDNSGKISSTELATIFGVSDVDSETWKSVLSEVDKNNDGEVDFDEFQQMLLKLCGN
Procedure: as §5

CpCDPK1 = target: T4, CpCDPK1 (Cryptosporidium parvum, UniProt A3FQ16); test: CDPK enzyme activity assay, CpCDPK1 WT; format: biochemical, C. parvum; conditions: Kinase-Glo assay; mean ± SD, n = 2–3 experiments; read-out: CpCDPK1 IC50 (±SD) WT
T4 construct: made in house
Procedure: as §5

[9] = system: T. gondii RH strain with L162Q substitution in TgMAPKL1; test: Proliferation EC50, β-galactosidase readout, TgMAPKL1 L162Q; format: cell-based
Procedure: as §1
An RH strain of with an L162Q substitution in TgMAPKL1 introduced by CRISPR/Cas9 site directed mutagenesis into a clone expressing β-galactosidase was used to determine the EC50s for proliferation. Compounds were dissolved in DMSO and serially diluted 4-fold across the first 11 columns of a 96 well plate from the highest concentration of 25 μM leaving the final column with no drugs. was added to the first 11 columns of the 96 well plate at 4000 parasites per well. The last column contained no compound. Plates were incubated 72 h at 37 °C and 5% CO2. were quantified by spectrophotometrically measuring the β-galactosidase concentration of each well after cell lysis and exposure to chlorophenol red β-galactopyranose (Sigma-Aldrich, St. Louis, MO) substrate. Each compound was tested at least three times in quadruplicate.

PfPKG = PfPKG (Plasmodium falciparum, UniProt Q8I719); test: PfPKG enzyme activity assay, recombinant WT; format: biochemical
Procedure: (§6) Direct inhibition of recombinant PfPKG phosphorylation activity was carried out using a previously described nonradioactive assay. The assay evaluates PfPKG activity based on changes in initial ATP concentration via luminescence after enzyme phosphorylation of peptide substrate PKCtide ([…]) (SignalChem, Richmond, BC Canada). Enzyme kinase activity was measured in the presence of 26 μM PKCtide; 50.1 nM PfPKG; and 20 μM cGMP in a buffered solution containing 20 mM β-glycerol-phosphate, 20 mM MgCl2, 25 mM HEPES pH 7.5 (KOH), 0.1% BSA and 2 mM DTT. The reaction was activated by the addition of 10 μM ATP with incubation at 30 °C and 90 rpm agitation for 120 min. […] Each assay plate contained reaction wells with no enzyme, no PKCtide peptide substrate and no cGMP as internal controls.

CpCDPK1-G152M = target: T5, CpCDPK1-G152M (Cryptosporidium parvum, UniProt A3FQ16, G152M); test: CDPK enzyme activity assay, CpCDPK1 G152M; format: biochemical, C. parvum
T5 construct: made in house
Procedure: as §5

PfPKG T618Q = PfPKG T618Q (Plasmodium falciparum, UniProt Q8I719, T618Q); test: PfPKG enzyme activity assay, T618Q gatekeeper mutant; format: biochemical, P. falciparum
Procedure: as §6

PfCDPK4 = target: T6, PfCDPK4 (Plasmodium falciparum, UniProt Q8IBS5); test: CDPK enzyme activity assay, PfCDPK4; format: biochemical, P. falciparum
T6 construct: made in house
Procedure: as §5

T1 sequence (Q9BJF5 whole entry G128M): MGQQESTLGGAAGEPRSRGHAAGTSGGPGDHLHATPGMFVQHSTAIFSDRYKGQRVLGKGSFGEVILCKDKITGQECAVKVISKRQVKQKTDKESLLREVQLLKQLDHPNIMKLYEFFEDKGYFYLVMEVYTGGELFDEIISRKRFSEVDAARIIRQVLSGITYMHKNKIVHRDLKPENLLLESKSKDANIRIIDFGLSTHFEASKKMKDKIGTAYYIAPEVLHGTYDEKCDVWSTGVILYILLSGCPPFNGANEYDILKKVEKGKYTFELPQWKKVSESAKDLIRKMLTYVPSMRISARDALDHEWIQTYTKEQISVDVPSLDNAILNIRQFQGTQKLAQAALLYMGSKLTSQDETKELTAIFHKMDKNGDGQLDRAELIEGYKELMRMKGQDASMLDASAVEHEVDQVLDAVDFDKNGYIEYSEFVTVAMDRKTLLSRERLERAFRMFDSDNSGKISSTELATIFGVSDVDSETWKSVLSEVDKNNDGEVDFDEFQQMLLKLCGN
T5 sequence (A3FQ16 whole entry G152M): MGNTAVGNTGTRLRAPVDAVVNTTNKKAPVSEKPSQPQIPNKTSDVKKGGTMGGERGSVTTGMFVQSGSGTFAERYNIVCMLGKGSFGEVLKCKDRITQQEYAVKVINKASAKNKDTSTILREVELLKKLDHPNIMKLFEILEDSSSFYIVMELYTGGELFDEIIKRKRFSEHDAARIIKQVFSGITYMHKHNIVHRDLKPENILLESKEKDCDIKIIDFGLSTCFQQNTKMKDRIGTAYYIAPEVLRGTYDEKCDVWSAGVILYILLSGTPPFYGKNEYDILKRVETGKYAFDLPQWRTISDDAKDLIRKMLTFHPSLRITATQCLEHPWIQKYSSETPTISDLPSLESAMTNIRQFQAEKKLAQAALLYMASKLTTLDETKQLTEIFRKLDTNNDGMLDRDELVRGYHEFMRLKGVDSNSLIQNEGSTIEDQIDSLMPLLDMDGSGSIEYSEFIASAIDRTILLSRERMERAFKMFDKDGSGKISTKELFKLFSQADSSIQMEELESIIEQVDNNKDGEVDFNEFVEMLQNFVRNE
Sequence of PfPKG T618Q (Q8I719 whole entry T618Q): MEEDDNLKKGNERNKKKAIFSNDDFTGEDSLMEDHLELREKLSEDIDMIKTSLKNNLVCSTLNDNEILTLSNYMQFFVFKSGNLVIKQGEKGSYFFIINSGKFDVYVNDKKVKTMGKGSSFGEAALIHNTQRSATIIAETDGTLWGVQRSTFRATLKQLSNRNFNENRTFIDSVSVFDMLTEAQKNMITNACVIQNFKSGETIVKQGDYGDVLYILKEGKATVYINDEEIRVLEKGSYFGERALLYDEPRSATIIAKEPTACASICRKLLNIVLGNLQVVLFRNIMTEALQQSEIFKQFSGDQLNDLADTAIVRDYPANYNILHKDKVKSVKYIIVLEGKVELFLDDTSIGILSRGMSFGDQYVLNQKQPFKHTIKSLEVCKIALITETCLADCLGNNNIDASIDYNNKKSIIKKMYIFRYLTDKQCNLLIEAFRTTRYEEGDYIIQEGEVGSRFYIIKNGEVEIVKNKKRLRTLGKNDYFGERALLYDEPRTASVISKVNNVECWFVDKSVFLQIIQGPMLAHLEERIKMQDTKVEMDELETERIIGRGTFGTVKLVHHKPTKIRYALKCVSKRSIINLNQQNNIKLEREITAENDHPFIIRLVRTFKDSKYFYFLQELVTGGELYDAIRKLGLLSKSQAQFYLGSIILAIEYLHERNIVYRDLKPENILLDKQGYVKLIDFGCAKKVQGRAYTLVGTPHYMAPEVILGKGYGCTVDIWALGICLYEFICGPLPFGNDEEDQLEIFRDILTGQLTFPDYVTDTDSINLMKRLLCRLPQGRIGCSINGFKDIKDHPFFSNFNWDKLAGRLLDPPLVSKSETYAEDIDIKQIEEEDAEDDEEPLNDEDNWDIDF
T2 sequence (P62344 whole entry): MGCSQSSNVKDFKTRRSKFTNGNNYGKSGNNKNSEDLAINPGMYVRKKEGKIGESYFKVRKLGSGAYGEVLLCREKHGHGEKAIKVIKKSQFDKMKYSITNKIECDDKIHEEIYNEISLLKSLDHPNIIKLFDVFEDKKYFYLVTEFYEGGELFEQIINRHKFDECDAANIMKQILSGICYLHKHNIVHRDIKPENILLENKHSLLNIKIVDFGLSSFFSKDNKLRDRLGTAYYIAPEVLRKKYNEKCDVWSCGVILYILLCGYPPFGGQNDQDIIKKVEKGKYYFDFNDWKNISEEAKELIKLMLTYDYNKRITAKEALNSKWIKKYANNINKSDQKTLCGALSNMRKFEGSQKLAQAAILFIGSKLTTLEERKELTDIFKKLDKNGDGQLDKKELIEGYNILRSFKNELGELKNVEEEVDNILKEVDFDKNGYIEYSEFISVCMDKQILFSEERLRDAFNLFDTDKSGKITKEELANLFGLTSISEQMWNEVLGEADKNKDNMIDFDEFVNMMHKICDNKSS
Sequence of PfPKG (Q8I719 whole entry): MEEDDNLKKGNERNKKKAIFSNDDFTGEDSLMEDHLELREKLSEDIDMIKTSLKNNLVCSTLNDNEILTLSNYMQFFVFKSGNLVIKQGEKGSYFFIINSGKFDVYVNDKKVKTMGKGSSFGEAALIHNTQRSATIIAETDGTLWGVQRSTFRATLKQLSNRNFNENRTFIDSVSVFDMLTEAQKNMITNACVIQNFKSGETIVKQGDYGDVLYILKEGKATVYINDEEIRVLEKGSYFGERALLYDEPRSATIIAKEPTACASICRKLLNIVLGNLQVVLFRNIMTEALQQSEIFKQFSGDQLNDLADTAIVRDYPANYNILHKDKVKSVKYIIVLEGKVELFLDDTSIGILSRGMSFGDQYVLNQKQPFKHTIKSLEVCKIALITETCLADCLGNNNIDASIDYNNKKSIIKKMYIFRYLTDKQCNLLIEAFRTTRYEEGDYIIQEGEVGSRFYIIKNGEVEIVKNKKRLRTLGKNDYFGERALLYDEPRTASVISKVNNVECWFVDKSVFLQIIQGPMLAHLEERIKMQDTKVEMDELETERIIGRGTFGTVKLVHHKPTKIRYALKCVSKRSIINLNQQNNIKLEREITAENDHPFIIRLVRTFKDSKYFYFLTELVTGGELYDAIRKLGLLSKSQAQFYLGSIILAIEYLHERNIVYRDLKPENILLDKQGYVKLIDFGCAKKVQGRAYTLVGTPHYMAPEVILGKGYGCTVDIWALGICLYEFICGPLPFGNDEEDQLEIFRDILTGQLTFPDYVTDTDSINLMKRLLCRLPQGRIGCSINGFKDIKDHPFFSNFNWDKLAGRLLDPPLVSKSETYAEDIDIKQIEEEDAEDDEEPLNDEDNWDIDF
T4 sequence (A3FQ16 1-538): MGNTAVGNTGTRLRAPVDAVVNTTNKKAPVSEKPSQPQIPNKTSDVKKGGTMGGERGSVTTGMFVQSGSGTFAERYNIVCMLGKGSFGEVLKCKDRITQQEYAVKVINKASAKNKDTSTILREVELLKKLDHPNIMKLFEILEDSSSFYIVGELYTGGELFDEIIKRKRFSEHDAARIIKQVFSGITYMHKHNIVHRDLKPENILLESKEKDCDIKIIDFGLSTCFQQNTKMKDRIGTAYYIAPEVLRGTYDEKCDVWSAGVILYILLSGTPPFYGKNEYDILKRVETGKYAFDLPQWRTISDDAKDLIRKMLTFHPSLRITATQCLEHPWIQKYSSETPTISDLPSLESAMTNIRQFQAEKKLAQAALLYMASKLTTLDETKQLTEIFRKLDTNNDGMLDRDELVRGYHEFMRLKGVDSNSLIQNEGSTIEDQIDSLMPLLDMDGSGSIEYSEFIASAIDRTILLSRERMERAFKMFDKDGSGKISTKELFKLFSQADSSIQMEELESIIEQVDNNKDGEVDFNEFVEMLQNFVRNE
T6 sequence (Q8IBS5 whole entry): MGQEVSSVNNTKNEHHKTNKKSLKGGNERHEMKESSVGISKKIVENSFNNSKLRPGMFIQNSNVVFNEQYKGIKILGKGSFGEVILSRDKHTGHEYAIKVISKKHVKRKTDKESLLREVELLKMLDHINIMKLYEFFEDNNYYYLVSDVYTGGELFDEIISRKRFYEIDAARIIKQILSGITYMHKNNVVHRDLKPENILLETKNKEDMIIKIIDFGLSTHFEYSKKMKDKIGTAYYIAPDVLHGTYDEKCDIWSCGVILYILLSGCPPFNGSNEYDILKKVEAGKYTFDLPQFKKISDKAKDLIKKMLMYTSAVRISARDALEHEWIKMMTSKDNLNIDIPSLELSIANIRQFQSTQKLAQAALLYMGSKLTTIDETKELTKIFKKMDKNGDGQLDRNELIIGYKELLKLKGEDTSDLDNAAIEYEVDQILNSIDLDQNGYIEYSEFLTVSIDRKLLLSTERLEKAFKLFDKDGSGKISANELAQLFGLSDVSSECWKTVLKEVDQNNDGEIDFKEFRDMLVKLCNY

SMILES: O=C(c1nccs1)N1CC[C@@H](Nc2nccc(-n3cc(C4CC4)nc3-c3cccc(Cl)c3)n2)C1 [(R)-RY-1-185]
- EC50 ([1]; read-out: T. gondii EC50 (±SD) CONTROL, tachyzoites, parental control of CDPK1 G128M, mean ± SD, n = 3–5): 150 nM
- EC50 ([1]; read-out: T. gondii EC50 (±SD) CONTROL, tachyzoites, parental control of PKG T761Q, mean ± SD, n = 3–5): 100 nM
- EC50 ([1]; read-out: T. gondii EC50 (±SD) CONTROL, tachyzoites, parental control of the double mutant, mean ± SD, n = 3–5): 120 nM
- EC50 ([1]; read-out: average EC50 against parental parasites, parental of TgPKG T761Q): 94 nM
- EC50 [2]: 6500 nM
- EC50 [3]: 10800 nM
- IC50 (TgCDPK1-G128M): > 30000 nM
- TgCDPK1 G128M mutant enzyme less sensitive (TgCDPK1-G128M; G128M versus WT enzyme): ≥ 600 fold
- EC50 [4]: 120 nM
- EC50 [5]: 10100 nM
- increase in EC50 against double mutant TgCDPK1 G128M; TgMAPKL-1 L162Q versus parental control [6]: 9 fold
- EC50 ([6]; Toxoplasma gondii, Fibroblast, read-out: T. gondii EC50 (±SD) CDPK1 G128M, MAPKL1 L162Q): 1210 nM
- EC50 for G128M parasites higher compared to the parental strain ([7]; TgCDPK1 G128M versus parental): 1.8 fold
- EC50 ([7]; Toxoplasma gondii, Fibroblast, read-out: T. gondii EC50 (±SD) CDPK1 G128M): 300 nM
- EC50 ([8]; read-out: T. gondii EC50 (±SD) PKGT761Q): 170 nM
- EC50 ([8]; read-out: average EC50 against the T761Q mutants): 161 nM
- increase in EC50, T761Q mutants versus parental ([8]; average): 1.7 fold
- IC50 (PfCDPK1): 6690 nM
- IC50 (TgCDPK1 WT): 60 nM
- IC50 (CpCDPK1): 90 nM
- increase in EC50 against TgMAPKL-1 L162Q parasites versus parental strain [9]: approximately 2.75 fold
- EC50 ([9]; Toxoplasma gondii, 72 h, read-out: T. gondii EC50 (±SD) MAPKL1 L162Q): 330 nM
- IC50 (PfPKG): 190 nM
- IC50 (CpCDPK1-G152M): > 30000 nM
- CpCDPK1 G152M mutant enzyme less sensitive (CpCDPK1-G152M; G152M versus WT enzyme): ≥ 300 ×
- IC50 (PfPKG T618Q): > 10000 nM
- IC50 (PfCDPK4): 2210 nM
